In US20250195463A1, “ORGANOMETALLIC COMPLEX, CONTROLLED-RELEASE MULTI-FUNCTIONAL DRUG, PHARMACEUTICAL COMPOSITION, PROCESSES FOR THE PREPARATION THEREOF AND THEIR USE” (FACULDADE DE CIÊNCIAS DA UNIVERSIDADE DE LISBOA, priority 2022, published 2025):

What was measured:
[1] = Stability in aqueous medium (dimethyl sulfoxide/Dulbecco's Modified Eagle Medium) by UV-Vis spectroscopy; format: physicochemical; details: for Relative variation of the maximum absorbance of the π→π* transitions: band 292-296 nm (λmax in column head); for Relative variation of the maximum absorbance of the charge transfer bands: band 358-400 nm (λmax in column head)
Description: (§1) The stability of the complexes 4-11 in organic and aqueous media was evaluated over 24 h by UV-Vis spectroscopy at room temperature, in dark, on a Jasco V-660 spectrometer using quartz cuvettes (1 cm optical path length). The electronic spectra (270-900 nm) were acquired at regular periods of time (0 h, 0.25 h, 0.5 h, 0.75 h, 1 h, 2 h, 3 h, 4 h, 5 h, 6 h, 24 h) for solutions of 100% dimethyl sulfoxide (complexes 4-11) and 5% dimethyl sulfoxide/95% Dulbecco's Modified Eagle Medium (complexes 4, 5 and 8-11) or 10% dimethyl sulfoxide/90% Dulbecco's Modified Eagle Medium (complexes 6 and 7) at concentrations ranging from 7.0×10^-5 M to 3.0×10^-4 M.

[2] = Stability in organic medium (dimethyl sulfoxide) by UV-Vis spectroscopy; format: physicochemical; details: band 357-425 nm (λmax in column head)
Description: as §1

[3] = 10% dimethyl sulfoxide/90% Dulbecco's Modified Eagle Medium, time 0 h
[4] = 10% dimethyl sulfoxide/90% Dulbecco's Modified Eagle Medium, time 0.25 h
[5] = 10% dimethyl sulfoxide/90% Dulbecco's Modified Eagle Medium, time 0.5 h
[6] = 10% dimethyl sulfoxide/90% Dulbecco's Modified Eagle Medium, time 0.75 h
[7] = 10% dimethyl sulfoxide/90% Dulbecco's Modified Eagle Medium, time 1 h
[8] = 10% dimethyl sulfoxide/90% Dulbecco's Modified Eagle Medium, time 2 h
[9] = 10% dimethyl sulfoxide/90% Dulbecco's Modified Eagle Medium, time 3 h
[10] = 10% dimethyl sulfoxide/90% Dulbecco's Modified Eagle Medium, time 4 h
[11] = 10% dimethyl sulfoxide/90% Dulbecco's Modified Eagle Medium, time 5 h
[12] = 10% dimethyl sulfoxide/90% Dulbecco's Modified Eagle Medium, time 6 h
[13] = 10% dimethyl sulfoxide/90% Dulbecco's Modified Eagle Medium, time 24 h
[14] = 5% dimethyl sulfoxide/95% Dulbecco's Modified Eagle Medium, time 0 h
[15] = 5% dimethyl sulfoxide/95% Dulbecco's Modified Eagle Medium, time 0.25 h
[16] = 5% dimethyl sulfoxide/95% Dulbecco's Modified Eagle Medium, time 0.5 h
[17] = 5% dimethyl sulfoxide/95% Dulbecco's Modified Eagle Medium, time 0.75 h
[18] = 5% dimethyl sulfoxide/95% Dulbecco's Modified Eagle Medium, time 1 h
[19] = 5% dimethyl sulfoxide/95% Dulbecco's Modified Eagle Medium, time 2 h
[20] = 5% dimethyl sulfoxide/95% Dulbecco's Modified Eagle Medium, time 3 h
[21] = 5% dimethyl sulfoxide/95% Dulbecco's Modified Eagle Medium, time 4 h
[22] = 5% dimethyl sulfoxide/95% Dulbecco's Modified Eagle Medium, time 5 h
[23] = 5% dimethyl sulfoxide/95% Dulbecco's Modified Eagle Medium, time 6 h
[24] = 5% dimethyl sulfoxide/95% Dulbecco's Modified Eagle Medium, time 24 h

CC(=O)C1=C[CH]([Ru-]2([PH](c3ccccc3)(c3ccccc3)c3ccccc3)[n+]3cccc4c5nccnc5c5ccc[n+]2c5c43)C=C1.O=S(=O)([O-])C(F)(F)F (stereo not drawn) [compound 7]
Relative variation of the maximum absorbance of the π→π* transitions [1, 3]: 0.0% | Relative variation of the maximum absorbance of the charge transfer bands [1, 3]: 0.0% | Relative variation of the maximum absorbance of the π→π* transitions [1, 4]: 0.0% | Relative variation of the maximum absorbance of the charge transfer bands [1, 4]: 0.3% | Relative variation of the maximum absorbance of the π→π* transitions [1, 5]: 0.1% | Relative variation of the maximum absorbance of the charge transfer bands [1, 5]: 0.4% | Relative variation of the maximum absorbance of the π→π* transitions [1, 6]: 0.3% | Relative variation of the maximum absorbance of the charge transfer bands [1, 6]: 0.6% | Relative variation of the maximum absorbance of the π→π* transitions [1, 7]: 0.1% | Relative variation of the maximum absorbance of the charge transfer bands [1, 7]: 0.5% | Relative variation of the maximum absorbance of the π→π* transitions [1, 8]: 0.1% | Relative variation of the maximum absorbance of the charge transfer bands [1, 8]: 0.5% | Relative variation of the maximum absorbance of the π→π* transitions [1, 9]: 0.0% | Relative variation of the maximum absorbance of the charge transfer bands [1, 9]: 0.4% | Relative variation of the maximum absorbance of the π→π* transitions [1, 10]: −0.3% | Relative variation of the maximum absorbance of the charge transfer bands [1, 10]: 0.5% | Relative variation of the maximum absorbance of the π→π* transitions [1, 11]: −0.2% | Relative variation of the maximum absorbance of the charge transfer bands [1, 11]: 0.5% | Relative variation of the maximum absorbance of the π→π* transitions [1, 12]: 0.0% | Relative variation of the maximum absorbance of the charge transfer bands [1, 12]: 0.4% | Relative variation of the maximum absorbance of the π→π* transitions [1, 13]: 0.3% | Relative variation of the maximum absorbance of the charge transfer bands [1, 13]: 1.3% | Relative variation of the maximum absorbance of the charge transfer bands ([2]; time 0 h): 0.0% | Relative variation of the maximum absorbance of the charge transfer bands ([2]; time 0.25 h): 0.0% | Relative variation of the maximum absorbance of the charge transfer bands ([2]; time 0.5 h): −0.1% | Relative variation of the maximum absorbance of the charge transfer bands ([2]; time 0.75 h): −0.1% | Relative variation of the maximum absorbance of the charge transfer bands ([2]; time 1 h): −0.1% | Relative variation of the maximum absorbance of the charge transfer bands ([2]; time 2 h): −0.3% | Relative variation of the maximum absorbance of the charge transfer bands ([2]; time 3 h): −0.2% | Relative variation of the maximum absorbance of the charge transfer bands ([2]; time 4 h): −0.5% | Relative variation of the maximum absorbance of the charge transfer bands ([2]; time 5 h): −0.3% | Relative variation of the maximum absorbance of the charge transfer bands ([2]; time 6 h): −0.4% | Relative variation of the maximum absorbance of the charge transfer bands ([2]; time 24 h): −0.3%

CCOC(=O)Oc1cc[n+]2c(c1)-c1cc(OC)cc[n+]1[Ru-]2([CH]1C=CC=C1)[PH](c1ccccc1)(c1ccccc1)c1ccccc1.O=S(=O)([O-])C(F)(F)F (stereo not drawn) [compound 11]
Relative variation of the maximum absorbance of the π→π* transitions [1, 14]: 0.0% | Relative variation of the maximum absorbance of the charge transfer bands [1, 14]: 0.0% | Relative variation of the maximum absorbance of the π→π* transitions [1, 15]: −0.2% | Relative variation of the maximum absorbance of the charge transfer bands [1, 15]: −0.1% | Relative variation of the maximum absorbance of the π→π* transitions [1, 16]: −0.3% | Relative variation of the maximum absorbance of the charge transfer bands [1, 16]: 0.0% | Relative variation of the maximum absorbance of the π→π* transitions [1, 17]: −0.2% | Relative variation of the maximum absorbance of the charge transfer bands [1, 17]: 0.1% | Relative variation of the maximum absorbance of the π→π* transitions [1, 18]: −0.2% | Relative variation of the maximum absorbance of the charge transfer bands [1, 18]: 0.1% | Relative variation of the maximum absorbance of the π→π* transitions [1, 19]: −0.5% | Relative variation of the maximum absorbance of the charge transfer bands [1, 19]: 0.1% | Relative variation of the maximum absorbance of the π→π* transitions [1, 20]: −0.4% | Relative variation of the maximum absorbance of the charge transfer bands [1, 20]: 0.1% | Relative variation of the maximum absorbance of the π→π* transitions [1, 21]: −0.9% | Relative variation of the maximum absorbance of the charge transfer bands [1, 21]: 0.0% | Relative variation of the maximum absorbance of the π→π* transitions [1, 22]: −0.7% | Relative variation of the maximum absorbance of the charge transfer bands [1, 22]: 0.1% | Relative variation of the maximum absorbance of the π→π* transitions [1, 23]: −0.4% | Relative variation of the maximum absorbance of the charge transfer bands [1, 23]: 0.2% | Relative variation of the maximum absorbance of the π→π* transitions [1, 24]: −1.0% | Relative variation of the maximum absorbance of the charge transfer bands [1, 24]: 0.4% | Relative variation of the maximum absorbance of the charge transfer bands ([2]; time 0 h): 0.0% | Relative variation of the maximum absorbance of the charge transfer bands ([2]; time 0.25 h): 0.0% | Relative variation of the maximum absorbance of the charge transfer bands ([2]; time 0.5 h): 0.2% | Relative variation of the maximum absorbance of the charge transfer bands ([2]; time 0.75 h): 0.1% | Relative variation of the maximum absorbance of the charge transfer bands ([2]; time 1 h): 0.3% | Relative variation of the maximum absorbance of the charge transfer bands ([2]; time 2 h): 0.1% | Relative variation of the maximum absorbance of the charge transfer bands ([2]; time 3 h): 0.0% | Relative variation of the maximum absorbance of the charge transfer bands ([2]; time 4 h): −0.2% | Relative variation of the maximum absorbance of the charge transfer bands ([2]; time 5 h): −0.3% | Relative variation of the maximum absorbance of the charge transfer bands ([2]; time 6 h): −0.3% | Relative variation of the maximum absorbance of the charge transfer bands ([2]; time 24 h): 0.2%
